Laboratory results taken from patent publication US8551984B2, “Aminopyrimidines as SYK inhibitors” (Merck Sharp & Dohme Corp., priority 2009, dated 2013).

Biological target: recombinant human SYK (GST-hSYK fusion protein) (Homo sapiens, UniProt P43405)
Test: biochemical
Conditions: rhSYK Activity
From the text: Homogeneous Time-Resolved Fluorescence (HTRF) Assay for the Recombinant Human SYK Enzyme:

## Cc1cc(Nc2nccc(C(F)(F)F)n2)cc(-c2cnc([C@]3(O)CC[C@@H](NC(=O)c4c[nH]nn4)CC3)s2)c1 [Example 54E-6]
Table 54E
  IC50: < 100 nM

## Cc1cc(Nc2nccc(C(F)(F)F)n2)cc(-c2cnc(C3(O)CCC(NC(=O)C4CC(O)C4)CC3)s2)c1 (centres unmarked) [Example 54E-7]
Table 54E
  IC50: < 100 nM

## Cc1cc(Nc2nccc(C(F)(F)F)n2)cc(-c2cnc(C3(O)CCC(NC(=O)CCC(N)=O)CC3)s2)c1 (centres unmarked) [Example 54E-8]
Table 54E
  IC50: < 100 nM

## Cc1cc(Nc2nccc(C(F)(F)F)n2)cc(-c2cnc([C@]3(O)CC[C@@H](NC(=O)c4ccccc4)CC3)s2)c1 [Example 54E-9]
Table 54E
  IC50: < 100 nM

## Cc1cc(Nc2nccc(C(F)(F)F)n2)cc(-c2cnc([C@]3(O)CC[C@@H](NC(=O)Cc4c[nH]cn4)CC3)s2)c1 [Example 54E-10]
Table 54E
  IC50: < 100 nM

## Cc1cc(Nc2nccc(C(F)(F)F)n2)cc(-c2cnc(C3(O)CCC(NC(=O)Cn4cncn4)CC3)s2)c1 (centres unmarked) [Example 54E-11]
Table 54E
  IC50: < 100 nM

## Cc1cc(Nc2nccc(C(F)(F)F)n2)cc(-c2cnc([C@]3(O)CC[C@@H](NC(=O)Cn4ccnn4)CC3)s2)c1 [Example 54E-12]
Table 54E
  IC50: < 100 nM

## Cc1cc(Nc2nccc(C(F)(F)F)n2)cc(-c2cnc(C3(O)CCC(NC(=O)Cn4cnnn4)CC3)s2)c1 (centres unmarked) [Example 54E-13]
Table 54E
  IC50: < 100 nM

## Cc1cc(Nc2nccc(C(F)(F)F)n2)cc(-c2cnc([C@]3(O)CC[C@@H](NC(=O)C4CCCCC4)CC3)s2)c1 [Example 54E-14]
Table 54E
  IC50: < 100 nM

## Cc1cc(Nc2nccc(C(F)(F)F)n2)cc(-c2cnc(C3(O)CCC(NC(=O)C4CNC(=O)N4)CC3)s2)c1 (centres unmarked) [Example 54E-15]
Table 54E
  IC50: < 100 nM

## Cc1cc(Nc2nccc(C(F)(F)F)n2)cc(-c2cnc(C3(O)CCC(NC(=O)C4CCCCO4)CC3)s2)c1 (centres unmarked) [Example 54E-16]
Table 54E
  IC50: < 100 nM

## Cc1cc(Nc2nccc(C(F)(F)F)n2)cc(-c2cnc(C3(O)CCC(NC(=O)CC4CCCO4)CC3)s2)c1 (centres unmarked) [Example 54E-17]
Table 54E
  IC50: < 100 nM

## Cc1cc(Nc2nccc(C(F)(F)F)n2)cc(-c2cnc(C3(O)CCC(NC(=O)C(C)(CO)CO)CC3)s2)c1 (centres unmarked) [Example 54E-20]
Table 54E
  IC50: < 100 nM

## Cc1cc(Nc2nccc(C(F)(F)F)n2)cc(-c2cnc([C@]3(O)CC[C@@H](NC(=O)Cc4ccccn4)CC3)s2)c1 [Example 54E-21]
Table 54E
  IC50: < 100 nM

## Cc1cc(Nc2nccc(C(F)(F)F)n2)cc(-c2cnc([C@]3(O)CC[C@@H](NC(=O)CS(C)(=O)=O)CC3)s2)c1 [Example 54E-22]
Table 54E
  IC50: < 100 nM

## Cc1cc(Nc2nccc(C(F)(F)F)n2)cc(-c2cnc([C@]3(O)CC[C@@H](NC(=O)Cc4ncccn4)CC3)s2)c1 [Example 54E-23]
Table 54E
  IC50: < 100 nM

## Cc1cc(Nc2nccc(C(F)(F)F)n2)cc(-c2cnc([C@]3(O)CC[C@@H](NC(=O)c4ccc(O)cn4)CC3)s2)c1 [Example 54E-24]
Table 54E
  IC50: < 100 nM

## Cc1cc(Nc2nccc(C(F)(F)F)n2)cc(-c2cnc(C3(O)CCC(NC(=O)c4cccc(O)n4)CC3)s2)c1 (centres unmarked) [Example 54E-25]
Table 54E
  IC50: < 100 nM

## Cc1cc(Nc2nccc(C(F)(F)F)n2)cc(-c2cnc([C@]3(O)CC[C@@H](NC(=O)CCc4cn[nH]c4)CC3)s2)c1 [Example 54E-26]
Table 54E
  IC50: < 100 nM

## Cc1cc(Nc2nccc(C(F)(F)F)n2)cc(-c2cnc(C3(O)CCC(NC(=O)CCn4cncn4)CC3)s2)c1 (centres unmarked) [Example 54E-27]
Table 54E
  IC50: < 100 nM

## Cc1cc(Nc2nccc(C(F)(F)F)n2)cc(-c2cnc(C3(O)CCC(NC(=O)C4CCCC(=O)N4)CC3)s2)c1 (centres unmarked) [Example 54E-28]
Table 54E
  IC50: < 100 nM

## Cc1cc(Nc2nccc(C(F)(F)F)n2)cc(-c2cnc(C3(O)CCC(NC(=O)CC4CCOCC4)CC3)s2)c1 (centres unmarked) [Example 54E-29]
Table 54E
  IC50: < 100 nM

## Cc1cc(Nc2nccc(C(F)(F)F)n2)cc(-c2cnc(C3(O)CCC(NC(=O)C(O)C(F)(F)F)CC3)s2)c1 (centres unmarked) [Example 54E-30]
Table 54E
  IC50: < 100 nM

## Cc1cc(Nc2nccc(C(F)(F)F)n2)cc(-c2cnc(C3(O)CCC(NC(=O)CCC(=O)N(C)C)CC3)s2)c1 (centres unmarked) [Example 54E-31]
Table 54E
  IC50: < 100 nM

## C#Cc1ccc(C(=O)NC2CCC(O)(c3ncc(-c4cc(C)cc(Nc5nccc(C(F)(F)F)n5)c4)s3)CC2)cc1 (centres unmarked) [Example 54E-32]
Table 54E
  IC50: < 100 nM

## Cc1cc(Nc2nccc(C(F)(F)F)n2)cc(-c2cnc([C@]3(O)CC[C@@H](NC(=O)c4ccc(C#N)cc4)CC3)s2)c1 [Example 54E-33]
Table 54E
  IC50: < 100 nM

## Cc1cc(Nc2nccc(C(F)(F)F)n2)cc(-c2cnc(C3(O)CCC(NC(=O)c4cc(O)ccc4F)CC3)s2)c1 (centres unmarked) [Example 54E-35]
Table 54E
  IC50: < 100 nM

## Cc1cc(Nc2nccc(C(F)(F)F)n2)cc(-c2cnc([C@]3(O)CC[C@@H](NC(=O)c4ccc(O)c(F)c4)CC3)s2)c1 [Example 54E-36]
Table 54E
  IC50: < 100 nM

## Cc1cc(Nc2nccc(C(F)(F)F)n2)cc(-c2cnc(C3(O)CCC(NC(=O)CC(N)C(F)(F)F)CC3)s2)c1 (centres unmarked) [Example 54E-37]
Table 54E
  IC50: < 100 nM

## COC(=O)C1CCC(C(=O)NC2CCC(O)(c3ncc(-c4cc(C)cc(Nc5nccc(C(F)(F)F)n5)c4)s3)CC2)CC1 (centres unmarked) [Example 54E-38]
Table 54E
  IC50: < 100 nM

## Cc1cc(Nc2nccc(C)n2)cc(-c2cnc(C3(O)CCC3)s2)c1 [Example 56-1]
Table 56
  IC50: < 100 nM

## CCc1ccnc(Nc2cc(C)cc(-c3cnc(C4(O)CCC4)s3)c2)n1 [Example 56-2]
Table 56
  IC50: < 100 nM

## Cc1cc(Nc2nccc(C3CC3)n2)cc(-c2cnc(C3(O)CCC3)s2)c1 [Example 56-3]
Table 56
  IC50: < 100 nM

## Cc1cc(Nc2nccc(C(F)(F)F)n2)cc(-c2cnc(C3(N)CCC3)s2)c1 [Example 61B-1, N-{3-[2-(1-aminocyclobutyl)-1,3-thiazol-5-yl]-5-methylphenyl}-4-(trifluoromethyl)pyrimidin-2-amine]
Table 61B
  IC50: < 100 nM

## Cc1cc(Nc2nccc(C(F)(F)F)n2)cc(-c2cnc(C3(NS(=O)(=O)CC(F)(F)F)CCC3)s2)c1 [Example 61B-2]
Table 61B
  IC50: < 100 nM

## Cc1cc(Nc2nccc(C(F)(F)F)n2)cc(-c2cnc(C3(NS(=O)(=O)CF)CCC3)s2)c1 [Example 61B-3]
Table 61B
  IC50: < 100 nM

## Cc1cc(Nc2nccc(C(F)(F)F)n2)cc(-c2cnc(C3(NS(C)(=O)=O)CCC3)s2)c1 [Example 61B-4]
Table 61B
  IC50: < 100 nM

## Cc1cc(Nc2nccc(C(F)(F)F)n2)cc(-c2cnc(C3(NS(=O)(=O)C(F)(F)F)CCC3)s2)c1 [Example 61B-5]
Table 61B
  IC50: < 100 nM

## Cc1cc(Nc2nccc(C(F)(F)F)n2)cc(-c2cnc(C3(NS(=O)(=O)CC(F)(F)F)COC3)s2)c1 [Example 61B-7]
Table 61B
  IC50: < 100 nM

## Cc1cc(Nc2nccc(C(F)(F)F)n2)cc(-c2cnc(C3(N[S+]([O-])C(F)F)COC3)s2)c1 (centres unmarked) [Example 61B-8]
Table 61B
  IC50: < 100 nM

## CS(=O)(=O)NC1(c2ncc(-c3cccc(Nc4nccc(C(F)(F)F)n4)c3)s2)COC1 [Example 61B-9]
Table 61B
  IC50: < 100 nM

## COc1nc(Nc2cc(C)cc(-c3cnc(C4(N)COC4)s3)c2)ncc1Cl [Example 61B-10]
Table 61B
  IC50: < 100 nM

## Cc1cc(Nc2ncccn2)cc(-c2cnc(C3(N)CCC3)s2)c1 [Example 62-1]
Table 62
  IC50: < 100 nM

## COc1ccnc(Nc2cc(C)cc(-c3cnc(C4(N)CCC4)s3)c2)n1 [Example 62-2]
Table 62
  IC50: < 100 nM

## Cc1cc(Nc2ncc(F)c(C)n2)cc(-c2cnc(C3(NS(N)(=O)=O)COC3)s2)c1 [Example 63-1]
Table 63
  IC50: < 100 nM

## COc1nc(Nc2cc(C)cc(-c3cnc(C4(NS(N)(=O)=O)COC4)s3)c2)ncc1Cl [Example 63-2]
Table 63
  IC50: < 100 nM

## Cc1cc(Nc2nccc(C(F)(F)F)n2)cc(-c2cnc(C3(NS(N)(=O)=O)CCC3)s2)c1 [Example 63-3]
Table 63
  IC50: < 100 nM

## Cc1cc(Nc2nccc(C(F)(F)F)n2)cc(-c2cnc(C(NS(N)(=O)=O)(C3CC3)C3CC3)s2)c1 [Example 63-4]
Table 63
  IC50: < 100 nM

## Cc1cc(Nc2nccc(C(F)(F)F)n2)cc(-c2cnc(C3(NC(N)=O)COC3)s2)c1 [Example 64-1]
Table 64, first part
  IC50: < 100 nM

## Cc1cc(Nc2nccc(C3CC3)n2)cc(-c2cnc(C3(NC(N)=O)CCC3)s2)c1 [Example 64-2]
Table 64, first part
  IC50: < 100 nM

## Cc1cc(Nc2ncccn2)cc(-c2cnc(C3(NC(N)=O)CCC3)s2)c1 [Example 64-3]
Table 64, first part
  IC50: < 100 nM

## Cc1cc(Nc2ncc(F)c(C3CC3)n2)cc(-c2cnc(C3(NC(N)=O)CCC3)s2)c1 [Example 64-6]
Table 64, first part
  IC50: < 100 nM

## NC(=O)NC1(c2ncc(-c3cc(F)cc(Nc4ncc(F)c(C5CC5)n4)c3)s2)CCC1 [Example 64-7]
Table 64, first part
  IC50: < 100 nM

## COc1nc(Nc2cc(C)cc(-c3cnc(C4(NC(N)=O)CCC4)s3)c2)ncc1Cl [Example 64-8]
Table 64, first part
  IC50: < 100 nM

## Cc1cc(Nc2nccc(C(F)(F)F)n2)cc(-c2cnc(C3(NC(N)=O)CCNC(=O)CC3)s2)c1 (centres unmarked) [Example 64-9]
Table 64, first part
  IC50: < 100 nM

## Cc1cc(Nc2nccc(C(F)(F)F)n2)cc(-c2cnc(C(NC(N)=O)(C3CC3)C3CC3)s2)c1 [Example 64-10]
Table 64, second part (structure)
  IC50: < 100 nM

## Cc1cc(Nc2ncc(C(=O)O)cn2)cc(-c2cnc(C3(O)CCC3)s2)c1 [Example 68-1]
Table after Example 68
  IC50: 100 to 1000 nM

## OC1(c2ncc(-c3cccc(Nc4nccc(C(F)(F)F)n4)c3)s2)CCC1 [Example 68-2]
Table after Example 68
  IC50: < 100 nM

## Cc1cc(Nc2nccc(C(C)(C)C)n2)cc(-c2cnc(C(C)(C)S(N)(=O)=O)s2)c1 [Example 70-1]
Table 70
  IC50: < 100 nM

## Cc1cc(Nc2nccc(C(C)C)n2)cc(-c2cnc(C(C)(C)S(N)(=O)=O)s2)c1 [Example 70-2]
Table 70
  IC50: < 100 nM

## Cc1cc(Nc2nccc(C(F)(F)F)n2)cc(-c2cnc(C3(S(C)(=O)=O)CCC3)s2)c1 [Example 74B-2]
Table 74B
  IC50: < 100 nM

## CS(=O)(=O)C1(c2ncc(-c3cc(Nc4nccc(C(F)(F)F)n4)cc([N+](=O)[O-])c3)s2)CCC1 [Example 74B-3]
Table 74B
  IC50: 1000 to 10000 nM

## Cc1cc(Nc2nccc(C(F)(F)F)n2)cc(-c2cnc(C3(S(N)(=O)=O)CCC3)s2)c1 [Example 74B-4]
Table 74B
  IC50: < 100 nM

## NS(=O)(=O)Cc1ncc(-c2cccc(Nc3nccc(C(F)(F)F)n3)c2)s1 [Example 75-1]
Table after Example 75
  IC50: < 100 nM

## COc1ccnc(Nc2cc(C)cc(-c3cnc(CS(N)(=O)=O)s3)c2)n1 [Example 75-2]
Table after Example 75
  IC50: < 100 nM
